Source: paper PMC7826463, “Pamiparib dose escalation in Chinese patients with non‐mucinous high‐grade ovarian cancer or advanced triple‐negative breast cancer” (Cancer Medicine, 2020)

System: Chinese patients with advanced HGOC or TNBC
Experiment: Safety/tolerability (adverse events per NCI-CTCAE v4.03, DLTs) in phase 1 dose escalation (NCT03333915)
Type: in vivo
Conditions: for Discontinued treatment: Adverse event: count (percent)
Source text: This phase 1/2, open‐label, multicenter study assessed the safety and antitumor activity of pamiparib in Chinese patients ≥18 years with advanced solid tumors whose disease progressed despite standard therapy or for which there is no standard therapy. Phase 1 was a dose‐escalation study, with a 3 + 3 design, that evaluated the single‐agent safety/tolerability, pharmacokinetic (PK) profile, and preliminary antitumor activity of pamiparib and confirmed the RP2D in Chinese patients (Figure 1). The phase 2 dose‐expansion component of this study is investigating the single‐agent antitumor activity and safety/tolerability of pamiparib.
In phase 1, patients received pamiparib at 20, 40, and 60 mg BID dose levels. The starting dose for pamiparib (20 mg BID) was selected as one‐third of the RP2D (60 mg BID) and one‐fourth of the MTD (80 mg BID), which were determined in the FIH study. […] Safety evaluations, including dose‐limiting toxicities (DLTs), of ≥3 patients completing one cycle of treatment at a specific dose level were required before proceeding to the next cohort with a higher dose level. Patients could continue the study treatment in 21‐day cycles and subsequent cycles at the discretion of the investigator.
The primary objective in phase 1 was to evaluate the safety and tolerability of pamiparib. Safety and tolerability endpoint assessments were based on monitoring of treatment‐emergent adverse events (AEs), in addition to vital signs, electrocardiograms, physical examinations, and clinical laboratory results. The incidence and severity of all AEs and incidence of serious AEs were assessed according to the National Cancer Institute‐Common Terminology Criteria for Adverse Events v4.03.
Approximately 14 to 18 evaluable patients were expected to enroll in the phase 1 part of the study. The safety population included all patients who received ≥1 dose of pamiparib. The PK population included all patients for whom valid pamiparib PK parameters could be estimated. Antitumor activity per RECIST v1.1 was assessed in all evaluable patients. Patients were considered response evaluable if they had measurable disease at baseline per RECIST v1.1 and had ≥1 post‐baseline tumor assessment, unless treatment had been discontinued due to clinical progression or death prior to tumor assessment. The population evaluable for CA‐125 response included patients in the safety population with baseline CA‐125 ≥2 x upper limit of normal.

SMILES: C[C@]12CCCN1CC1=NNC(=O)c3cc(F)cc4[nH]c2c1c34 [pamiparib, Pamiparib]
- Treatment-related adverse event Asthenia, All Grades (20 mg BID (n = 4)): 3 (75.0) n (%)
- Treatment-related adverse event Asthenia, Grade ≥3 (20 mg BID (n = 4)): 0 n (%)
- Treatment-related adverse event Decreased appetite, All Grades (20 mg BID (n = 4)): 3 (75.0) n (%)
- Treatment-related adverse event Decreased appetite, Grade ≥3 (20 mg BID (n = 4)): 0 n (%)
- Treatment-related adverse event Decreased hemoglobin, All Grades (20 mg BID (n = 4)): 0 n (%)
- Treatment-related adverse event Decreased hemoglobin, Grade ≥3 (20 mg BID (n = 4)): 0 n (%)
- Treatment-related adverse event Decreased neutrophil count, All Grades (20 mg BID (n = 4)): 1 (25.0) n (%)
- Treatment-related adverse event Decreased neutrophil count, Grade ≥3 (20 mg BID (n = 4)): 0 n (%)
- Treatment-related adverse event Decreased platelet count, All Grades (20 mg BID (n = 4)): 0 n (%)
- Treatment-related adverse event Decreased platelet count, Grade ≥3 (20 mg BID (n = 4)): 0 n (%)
- Treatment-related adverse event Decreased white blood cell count, All Grades (20 mg BID (n = 4)): 2 (50.0) n (%)
- Treatment-related adverse event Decreased white blood cell count, Grade ≥3 (20 mg BID (n = 4)): 0 n (%)
- Treatment-related adverse event Diarrhea, All Grades (20 mg BID (n = 4)): 0 n (%)
- Treatment-related adverse event Diarrhea, Grade ≥3 (20 mg BID (n = 4)): 0 n (%)
- Treatment-related adverse event Increased GGT, All Grades (20 mg BID (n = 4)): 1 (25.0) n (%)
- Treatment-related adverse event Increased GGT, Grade ≥3 (20 mg BID (n = 4)): 0 n (%)
- Treatment-related adverse event Increased conjugated bilirubin, All Grades (20 mg BID (n = 4)): 1 (25.0) n (%)
- Treatment-related adverse event Increased conjugated bilirubin, Grade ≥3 (20 mg BID (n = 4)): 0 n (%)
- Treatment-related adverse event Nausea, All Grades (20 mg BID (n = 4)): 4 (100.0) n (%)
- Treatment-related adverse event Nausea, Grade ≥3 (20 mg BID (n = 4)): 0 n (%)
- Treatment-related adverse event Prolonged electrocardiogram QT, All Grades (20 mg BID (n = 4)): 1 (25.0) n (%)
- Treatment-related adverse event Prolonged electrocardiogram QT, Grade ≥3 (20 mg BID (n = 4)): 1 (25.0) n (%)
- Treatment-related adverse event Somnolence, All Grades (20 mg BID (n = 4)): 1 (25.0) n (%)
- Treatment-related adverse event Somnolence, Grade ≥3 (20 mg BID (n = 4)): 0 n (%)
- Treatment-related adverse event Tachycardia, All Grades (20 mg BID (n = 4)): 0 n (%)
- Treatment-related adverse event Tachycardia, Grade ≥3 (20 mg BID (n = 4)): 0 n (%)
- Treatment-related adverse event Vomiting, All Grades (20 mg BID (n = 4)): 1 (25.0) n (%)
- Treatment-related adverse event Vomiting, Grade ≥3 (20 mg BID (n = 4)): 0 n (%)
- Discontinued treatment: Adverse event (20 mg BID (n=4)): 0
- Treatment-related adverse event Asthenia, All Grades (40 mg BID (n = 4)): 4 (100.0) n (%)
- Treatment-related adverse event Asthenia, Grade ≥3 (40 mg BID (n = 4)): 0 n (%)
- Treatment-related adverse event Decreased appetite, All Grades (40 mg BID (n = 4)): 3 (75.0) n (%)
- Treatment-related adverse event Decreased appetite, Grade ≥3 (40 mg BID (n = 4)): 0 n (%)
- Treatment-related adverse event Decreased hemoglobin, All Grades (40 mg BID (n = 4)): 1 (25.0) n (%)
- Treatment-related adverse event Decreased hemoglobin, Grade ≥3 (40 mg BID (n = 4)): 0 n (%)
- Treatment-related adverse event Decreased neutrophil count, All Grades (40 mg BID (n = 4)): 3 (75.0) n (%)
- Treatment-related adverse event Decreased neutrophil count, Grade ≥3 (40 mg BID (n = 4)): 0 n (%)
- Treatment-related adverse event Decreased platelet count, All Grades (40 mg BID (n = 4)): 0 n (%)
- Treatment-related adverse event Decreased platelet count, Grade ≥3 (40 mg BID (n = 4)): 0 n (%)
- Treatment-related adverse event Decreased white blood cell count, All Grades (40 mg BID (n = 4)): 3 (75.0) n (%)
- Treatment-related adverse event Decreased white blood cell count, Grade ≥3 (40 mg BID (n = 4)): 0 n (%)
- Treatment-related adverse event Diarrhea, All Grades (40 mg BID (n = 4)): 1 (25.0) n (%)
- Treatment-related adverse event Diarrhea, Grade ≥3 (40 mg BID (n = 4)): 0 n (%)
- Treatment-related adverse event Increased GGT, All Grades (40 mg BID (n = 4)): 1 (25.0) n (%)
- Treatment-related adverse event Increased GGT, Grade ≥3 (40 mg BID (n = 4)): 0 n (%)
- Treatment-related adverse event Increased conjugated bilirubin, All Grades (40 mg BID (n = 4)): 1 (25.0) n (%)
- Treatment-related adverse event Increased conjugated bilirubin, Grade ≥3 (40 mg BID (n = 4)): 0 n (%)
- Treatment-related adverse event Nausea, All Grades (40 mg BID (n = 4)): 3 (75.0) n (%)
- Treatment-related adverse event Nausea, Grade ≥3 (40 mg BID (n = 4)): 0 n (%)
- Treatment-related adverse event Prolonged electrocardiogram QT, All Grades (40 mg BID (n = 4)): 1 (25.0) n (%)
- Treatment-related adverse event Prolonged electrocardiogram QT, Grade ≥3 (40 mg BID (n = 4)): 0 n (%)
- Treatment-related adverse event Somnolence, All Grades (40 mg BID (n = 4)): 1 (25.0) n (%)
- Treatment-related adverse event Somnolence, Grade ≥3 (40 mg BID (n = 4)): 0 n (%)
- Treatment-related adverse event Tachycardia, All Grades (40 mg BID (n = 4)): 1 (25.0) n (%)
- Treatment-related adverse event Tachycardia, Grade ≥3 (40 mg BID (n = 4)): 0 n (%)
- Treatment-related adverse event Vomiting, All Grades (40 mg BID (n = 4)): 1 (25.0) n (%)
- Treatment-related adverse event Vomiting, Grade ≥3 (40 mg BID (n = 4)): 0 n (%)
- Discontinued treatment: Adverse event (40 mg BID (n=4)): 0
- Treatment-related adverse event Asthenia, All Grades (60 mg BID (n = 7)): 5 (71.4) n (%)
- Treatment-related adverse event Asthenia, Grade ≥3 (60 mg BID (n = 7)): 0 n (%)
- Treatment-related adverse event Decreased appetite, All Grades (60 mg BID (n = 7)): 3 (42.9) n (%)
- Treatment-related adverse event Decreased appetite, Grade ≥3 (60 mg BID (n = 7)): 0 n (%)
- Treatment-related adverse event Decreased hemoglobin, All Grades (60 mg BID (n = 7)): 5 (71.4) n (%)
- Treatment-related adverse event Decreased hemoglobin, Grade ≥3 (60 mg BID (n = 7)): 3 (42.9) n (%)
- Treatment-related adverse event Decreased neutrophil count, All Grades (60 mg BID (n = 7)): 4 (57.1) n (%)
- Treatment-related adverse event Decreased neutrophil count, Grade ≥3 (60 mg BID (n = 7)): 2 (28.6) n (%)
- Treatment-related adverse event Decreased platelet count, All Grades (60 mg BID (n = 7)): 3 (42.9) n (%)
- Treatment-related adverse event Decreased platelet count, Grade ≥3 (60 mg BID (n = 7)): 1 (14.3) n (%)
- Treatment-related adverse event Decreased white blood cell count, All Grades (60 mg BID (n = 7)): 5 (71.4) n (%)
